Patent US20240381872A1, “SUBSTITUTED 2,3-DIHYDRO[1,3]THIAZOLO[4,5-B]PYRIDINES, SALTS THEREOF AND THEIR USE AS HERBICIDALLY ACTIVE SUBSTANCES” (BAYER AKTIENGESELLSCHAFT, priority 2021, published 2024)

Assays:
Format in all cases: in vivo
Kochia scoparia (KCHSC) [1] = test: Herbicidal post-emergence action, section E (Table E11); settings: visual assessment ca. 3 weeks after spraying; for pest or weed control at 80 g/ha: Bassia scoparia, 504 h, read-out: post-emergence activity against KCHSC in %
Text: (§1) Seeds of mono- and dicotyledonous weed plants and crop plants were sown, in plastic or organic planting pots, in sandy loam, covered with soil and grown in a greenhouse under controlled growth conditions. 2 to 3 weeks after sowing, the test plants were sprayed in the single-leaf stage. The compounds according to the invention, formulated in form of wettable powders (WP) or as emulsifiable concentrates (EC), were sprayed onto the green plant parts as aqueous suspension or emulsion, with the addition of 0.5% of an additive, at an application rate of 600 l of water/ha (converted). The test plants were placed in the greenhouse for ca. 3 weeks under optimum growth conditions, and then the effect of the preparations was assessed visually in comparison with untreated controls (herbicidal effect in percent (%): 100% effect=plants have died off, 0% effect=as control plants).

Kochia scoparia (KCHSC) [2] = test: Herbicidal pre-emergence action, section C (Table C13); settings: application rate 320 g/ha, visual grading after ca. 3 weeks; for pest or weed control at 320 g/ha: Bassia scoparia, pre-emergence, 504 h, read-out: pre-emergence activity against KCHSC in %
Text: (§2) Seeds of mono- and dicotyledonous weed plants and crop plants were sown, in plastic or organic planting pots, in sandy loam and covered with soil. The compounds according to the invention, formulated in the form of wettable powders (WP) or as emulsifiable concentrates (EC), were applied to the surface of the covering soil as aqueous suspension or emulsion, with the addition of 0.5% of an additive, at an application rate of 600 l of water/ha (converted). Following treatment, the pots were placed in a greenhouse and kept under optimum growth conditions for the test plants. The visual grading of the damage to the test plants was carried out after ca. 3 weeks in comparison to untreated controls (herbicidal effect in percent (%): 100% effect=plants have died off, 0% effect=as control plants).

Brassica napus (BRSNW) = test: Pre-emergence effects on crop plants, section D (Table D5); settings: visual grading after ca. 3 weeks
Method in brief: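 Seeds sown in sandy loam and covered with soil; WP or EC formulations applied to the covering soil surface as aqueous suspension/emulsion with 0.5% additive at 600 l water/ha, at 320 g/ha or below. Greenhouse growth; visual damage scored after ca. 3 weeks versus untreated controls (0% = as control, 100% = dead).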

Oryza sativa (ORYZA) = test: Pre-emergence effects on crop plants, section D (Table D3); settings: visual grading after ca. 3 weeks
Text: Seeds of mono- and dicotyledonous weed plants and crop plants were sown, in plastic or organic planting pots, in sandy loam and covered with soil. The compounds according to the invention, formulated in the form of wettable powders (WP) or as emulsifiable concentrates (EC), were applied to the surface of the covering soil as aqueous suspension or emulsion, with the addition of 0.5% of an additive, at an application rate of 600 l of water/ha (converted).
Following treatment, the pots were placed in a greenhouse and kept under optimum growth conditions for the test plants. The visual grading of the damage to the test plants was carried out after ca. 3 weeks in comparison to untreated controls (herbicidal effect in percent (%): 100% effect=plants have died off, 0% effect=as control plants).
Tables D1 to D5 below show the effects of various compounds of the general formula (I) according to Table 1 on various crop plants and an application rate corresponding to 320 g/ha or below obtained by the experimental procedure mentioned above in Biological Examples, Section C.

Avena fatua (AVEFA) = test: Herbicidal pre-emergence action, section C (Table C4); settings: 504 h, application rate 320 g/ha, visual grading ca. 3 weeks after treatment vs untreated controls, 100% = plants have died off, 0% = as control plants, read-out: pre-emergence activity against AVEFA
Text: as §2

[3] = tested on: Digitaria sanguinalis (DIGSA); test: Herbicidal post-emergence action, section E (Table E4); settings: application rate 80 g/ha; assessed visually ca. 3 weeks after treatment vs untreated controls; 100% = plants have died off, 0% = as control plants
Text: as §1

Viola tricolor (VIOTR) [4] = test: Herbicidal pre-emergence action, section C (Table C9); settings: visual grading after ca. 3 weeks; for pest or weed control at 80 g/ha / pest or weed control at 320 g/ha: Viola tricolor, pre-emergence, 504 h, read-out: pre-emergence activity against VIOTR in %
Text: as §2

Lolium rigidum (LOLRI) = test: Herbicidal post-emergence action, section E (Table E6); settings: application rate 320 g/ha, visual assessment ca. 3 weeks after spraying; for pest or weed control at 320 g/ha: Lolium rigidum, 504 h, read-out: post-emergence activity against LOLRI in %
Text: as §1

Viola tricolor (VIOTR) [5] = test: Herbicidal post-emergence action, section E (Table E10); settings: application rate 320 g/ha, visual assessment ca. 3 weeks after spraying
Text: as §1

Compound: CC1(C(=O)N2CSc3cc(Br)c(-c4ccccc4Cl)nc32)CC(Cl)=NO1 (stereo not shown) [Example I-141, [6-bromo-5-(2-chlorophenyl)[1,3]thiazolo[4,5-b]pyridin-3(2H)-yl](3-chloro-5-methyl-4,5-dihydro-1,2-oxazol-5-yl)methanone]
- pest or weed control at 80 g/ha (Kochia scoparia (KCHSC) [1]; application rate 80 g/ha): 80%
- pest or weed control at 320 g/ha (Kochia scoparia (KCHSC) [2]): 90%
- pre-emergence activity against BRSNW in % (crop plant damage) (Brassica napus (BRSNW); application rate 80 g/ha): 20%

Compound: CC1(C(=O)N2CSc3cc(Br)c(-c4ccccc4)nc32)CC(Cl)=NO1 (stereo not shown) [Example I-139]
- post-emergence activity against KCHSC in % (Kochia scoparia (KCHSC) [1]; application rate 320 g/ha): 90%
- pre-emergence activity against KCHSC in % (Kochia scoparia (KCHSC) [2]): 90%

Compound: CC(=O)N1CSc2cc(Br)c(-c3ccccc3Cl)nc21 [Example I-055, 1-[6-bromo-5-(2-chlorophenyl)[1,3]thiazolo[4,5-b]pyridin-3(2H)-yl]ethanone]
- pre-emergence activity against ORYZA in % (crop plant damage) (Oryza sativa (ORYZA); application rate 320 g/ha): 20%
- pre-emergence activity against BRSNW in % (crop plant damage) (Brassica napus (BRSNW); application rate 80 g/ha): 20%

Compound: Cc1cc2c(nc1-c1ccccc1F)NCS2 [Example I-007, 5-(2-fluorophenyl)-6-methyl-2,3-dihydro[1,3]thiazolo[4,5-b]pyridine]
- pest or weed control at 320 g/ha (Avena fatua (AVEFA)): 80%
- post-emergence activity against DIGSA [3]: 90%

Compound: CCS(=O)(=O)N1CSc2cc(C)c(-c3ccccc3F)nc21 [Example I-060, 3-(ethylsulfonyl)-5-(2-fluorophenyl)-6-methyl-2,3-dihydro[1,3]thiazolo[4,5-b]pyridine]
- pest or weed control at 320 g/ha (Avena fatua (AVEFA)): 90%
- pest or weed control at 80 g/ha (Viola tricolor (VIOTR) [4]; application rate 80 g/ha): 90%

Compound: Cc1ccccc1-c1nc2c(cc1C)SCN2C(=O)C1(C)CC(Cl)=NO1 (stereo not shown) [Example I-137]
- post-emergence activity against KCHSC in % (Kochia scoparia (KCHSC) [1]; application rate 80 g/ha): 90%
- pre-emergence activity against KCHSC in % (Kochia scoparia (KCHSC) [2]): 100%

Compound: CCOCCS(=O)(=O)N1C[S+]([O-])c2cc(C)c(-c3ccccc3F)nc21 (stereo not shown) [Example I-127]
- pest or weed control at 320 g/ha (Lolium rigidum (LOLRI)): 80%
- pest or weed control at 80 g/ha (Kochia scoparia (KCHSC) [1]; application rate 80 g/ha): 90%
- pest or weed control at 320 g/ha (Kochia scoparia (KCHSC) [2]): 90%

Compound: Cc1cc2c(nc1-c1ccccc1F)N(S(=O)(=O)Cc1ccc(F)cc1)CS2 [Example I-122]
- post-emergence activity against KCHSC in % (Kochia scoparia (KCHSC) [1]; application rate 80 g/ha): 80%
- pre-emergence activity against KCHSC in % (Kochia scoparia (KCHSC) [2]): 90%
- pre-emergence activity against VIOTR in % (Viola tricolor (VIOTR) [4]; application rate 320 g/ha): 80%

Compound: CCS(=O)(=O)N1C[S+]([O-])c2cc(C)c(-c3ccccc3C)nc21 (stereo not shown) [Example I-074]
- pest or weed control at 320 g/ha (Viola tricolor (VIOTR) [4]; application rate 320 g/ha): 90%

Compound: Cc1cc2c(nc1-c1cccc(C)c1F)NCS2 [Example I-113]
- pre-emergence activity against KCHSC in % (Kochia scoparia (KCHSC) [2]): 80%

Compound: Cc1cc2c(nc1-c1ccccc1F)N(C(=O)C1(C)CC(Cl)=NO1)CS2 (stereo not shown) [Example I-083]
- pre-emergence activity against ORYZA in % (crop plant damage) (Oryza sativa (ORYZA); application rate 80 g/ha): 20%
- pre-emergence activity against VIOTR in % (Viola tricolor (VIOTR) [4]; application rate 80 g/ha): 90%

Compound: COC(=O)CCC(=O)N1CSc2cc(Cl)c(-c3ccccc3F)nc21 [Example I-003]
- pre-emergence activity against BRSNW in % (crop plant damage) (Brassica napus (BRSNW); application rate 80 g/ha): 20%

Compound: Cc1cc2c(nc1-c1ccccc1F)N(C(=O)C13CCCC1C(Cl)=NO3)CS2 (stereo not shown) [Example I-104]
- post-emergence activity against KCHSC in % (Kochia scoparia (KCHSC) [1]; application rate 320 g/ha): 90%
- post-emergence activity against VIOTR in % (Viola tricolor (VIOTR) [5]): 80%
- pre-emergence activity against KCHSC in % (Kochia scoparia (KCHSC) [2]): 90%
- pre-emergence activity against VIOTR in % (Viola tricolor (VIOTR) [4]; application rate 320 g/ha): 80%

Compound: Clc1ccccc1-c1nc2c(cc1Br)SCN2 [Example I-041, 6-bromo-5-(2-chlorophenyl)-2,3-dihydro[1,3]thiazolo[4,5-b]pyridine]
- pre-emergence activity against ORYZA in % (crop plant damage) (Oryza sativa (ORYZA); application rate 320 g/ha): 20%

Compound: CCc1ccccc1-c1nc2c(cc1C)[S+]([O-])CN2 (stereo not shown) [Example I-047]
- pest or weed control at 80 g/ha (Viola tricolor (VIOTR) [4]; application rate 80 g/ha): 90%

Compound: COCC1(C(=O)N2CSc3cc(C)c(-c4ccccc4F)nc32)CC(Cl)=NO1 (stereo not shown) [Example I-128]
- post-emergence activity against LOLRI in % (Lolium rigidum (LOLRI)): 80%
- post-emergence activity against KCHSC in % (Kochia scoparia (KCHSC) [1]; application rate 80 g/ha): 90%
- pre-emergence activity against KCHSC in % (Kochia scoparia (KCHSC) [2]): 90%

Compound: CC(C)C(=O)N1C[S+]([O-])c2cc(Br)c(-c3ccccc3)nc21 (stereo not shown) [Example I-067]
- pre-emergence activity against ORYZA in % (crop plant damage) (Oryza sativa (ORYZA); application rate 80 g/ha): 20%
- pest or weed control at 320 g/ha (Viola tricolor (VIOTR) [4]; application rate 320 g/ha): 100%

Compound: Fc1ccccc1-c1nc2c(cc1Br)SCN2 [Example I-001, 6-bromo-5-(2-fluorophenyl)-2,3-dihydro[1,3]thiazolo[4,5-b]pyridine]
- pest or weed control at 320 g/ha (Lolium rigidum (LOLRI)): 90%
- pre-emergence activity against ORYZA in % (crop plant damage) (Oryza sativa (ORYZA); application rate 80 g/ha): 20%
- pest or weed control at 320 g/ha (Avena fatua (AVEFA)): 80%
- pre-emergence activity against BRSNW in % (crop plant damage) (Brassica napus (BRSNW); application rate 320 g/ha): 20%

Compound: Cc1cc2c(nc1-c1ccccc1)N(C(=O)C1(C)CC(Cl)=NO1)CS2 (stereo not shown) [Example I-088]
- post-emergence activity against KCHSC in % (Kochia scoparia (KCHSC) [1]; application rate 320 g/ha): 80%
- post-emergence activity against VIOTR in % (Viola tricolor (VIOTR) [5]): 80%
- pre-emergence activity against KCHSC in % (Kochia scoparia (KCHSC) [2]): 90%
- pre-emergence activity against VIOTR in % (Viola tricolor (VIOTR) [4]; application rate 320 g/ha): 90%
